The test system of one assay is Cryptococcus neoformans. As to the kind of experiment: Antifungal activity against Cryptococcus neoformans by twofold dilution method. The assay is classed as functional. To be noted: Cryptococcus neoformans; read-out: MIC.
A further assay relates to Aspergillus flavus. Put plainly: Antifungal activity against Aspergillus flavus by twofold dilution method. The settings on record: Aspergillus flavus; read-out: MIC. It is filed as functional.
In a further assay the test system is Pseudomonas aeruginosa. Put plainly: Antibacterial activity against Pseudomonas aeruginosa by twofold dilution method. The assay is classed as functional. The settings on record: Pseudomonas aeruginosa; read-out: MIC.
A further assay deals with Candida albicans. As to the kind of experiment: Antifungal activity against Candida albicans by twofold dilution method. The assay is classed as functional. To be noted: Candida albicans; read-out: MIC.
A further assay concerns Rhizopus. As to the kind of experiment: Antifungal activity against Rhizopus sp. by twofold dilution method. It is filed as functional. To be noted: Rhizopus; read-out: MIC.
The test system of the next assay is Staphylococcus aureus. As to the kind of experiment: Antibacterial activity against Staphylococcus aureus by twofold dilution method. It is filed as functional. To be noted: Staphylococcus aureus; read-out: MIC.
Assay [1] has as its system Salmonella enterica subsp. enterica. Put plainly: Antibacterial activity against Salmonella typhi by twofold dilution method. It is filed as functional, Salmonella enterica subsp. enterica serovar Typhi. To be noted: Salmonella enterica; read-out: MIC.
A further assay has as its system Aspergillus niger. Put plainly: Antifungal activity against Aspergillus niger by twofold dilution method. The assay is classed as functional. To be noted: Aspergillus niger; read-out: MIC.
The next assay deals with Candida. Put plainly: Antifungal activity against Candida 51 by twofold dilution method. The assay is classed as functional. The settings on record: Candida, 51; read-out: MIC.
A further assay deals with Escherichia coli. Put plainly: Antibacterial activity against Escherichia coli by twofold dilution method. It is filed as functional. The settings on record: Escherichia coli; read-out: MIC.

≈ marks a conversion by molar mass, not a printed value.

`CC1/C(=N/OCc2ccccc2)CC(c2ccc(Cl)cc2)NC1c1ccc(Cl)cc1` (stereo not given): the MIC – broadly, the least concentration at which growth counts as inhibited – in the assay on Cryptococcus neoformans came out at 50 µg/mL (≈ 114 µM); in the assay with Aspergillus flavus, 50 µg/mL (≈ 114 µM); with Pseudomonas aeruginosa it was 25 µg/mL (≈ 56.9 µM); with Candida albicans it was 25 µg/mL (≈ 56.9 µM); in the assay with Rhizopus, 100 µg/mL (≈ 228 µM); in the assay on Staphylococcus aureus, 50 µg/mL (≈ 114 µM). Besides, the MIC (in assay [1]; in the assay with Aspergillus niger; in the assay on Candida; in the assay with Escherichia coli) was 50 µg/mL (≈ 114 µM) in each case.

Consider `COc1ccc(C2C/C(=N\OCc3ccccc3)C(C)C(c3ccc(OC)cc3)N2)cc1` (stereo not given), for which the MIC is 25 µg/mL (≈ 58.1 µM) with Cryptococcus neoformans; 50 µg/mL (≈ 116 µM) in the assay with Aspergillus flavus; 50 µg/mL (≈ 116 µM) in the assay with Pseudomonas aeruginosa; 25 µg/mL (≈ 58.1 µM) with Candida albicans; 25 µg/mL (≈ 58.1 µM) in the assay on Rhizopus; 25 µg/mL (≈ 58.1 µM) with Staphylococcus aureus. In addition, the MIC in assay [1] amounted to 25 µg/mL (≈ 58.1 µM); in the assay with Aspergillus niger, 50 µg/mL (≈ 116 µM); in the assay with Candida, 12.5 µg/mL (≈ 29 µM); in the assay with Escherichia coli, 50 µg/mL (≈ 116 µM).

For the compound `CCC1/C(=N/OCc2ccccc2)CC(c2ccccc2)NC1c1ccccc1` (stereo not given), the MIC in the assay on Cryptococcus neoformans was 200 µg/mL (≈ 520 µM); in the assay with Aspergillus flavus, more than 200 µg/mL; in the assay on Pseudomonas aeruginosa, 100 µg/mL (≈ 260 µM); in the assay with Candida albicans, 100 µg/mL (≈ 260 µM); in the assay on Rhizopus, 50 µg/mL (≈ 130 µM); with Staphylococcus aureus it was 25 µg/mL (≈ 65 µM). Also, the MIC in assay [1] is 50 µg/mL (≈ 130 µM); in the assay on Aspergillus niger, 50 µg/mL (≈ 130 µM); in the assay with Candida, 100 µg/mL (≈ 260 µM); with Escherichia coli, 100 µg/mL (≈ 260 µM).

Regarding `c1ccc(CON=C2CC(c3ccccc3)NC(c3ccccc3)C2)cc1` (stereo not given), the MIC is more than 200 µg/mL with Cryptococcus neoformans; 200 µg/mL (≈ 561 µM) in the assay on Aspergillus flavus; 200 µg/mL (≈ 561 µM) with Pseudomonas aeruginosa; 200 µg/mL (≈ 561 µM) with Candida albicans; more than 200 µg/mL with Rhizopus; more than 200 µg/mL in the assay on Staphylococcus aureus. For the same compound, the MIC in assay [1] is 100 µg/mL (≈ 281 µM); in the assay with Aspergillus niger it was more than 200 µg/mL; in the assay on Candida, 200 µg/mL (≈ 561 µM); in the assay with Escherichia coli, more than 200 µg/mL.

Consider `CC1/C(=N/OCc2ccccc2)CC(c2ccccc2)NC1c1ccccc1` (stereo not given), for which the MIC in the assay with Cryptococcus neoformans is more than 200 µg/mL; in the assay with Aspergillus flavus, 100 µg/mL (≈ 270 µM); in the assay on Pseudomonas aeruginosa it was 200 µg/mL (≈ 540 µM); in the assay on Candida albicans, 100 µg/mL (≈ 270 µM); with Rhizopus, 200 µg/mL (≈ 540 µM); in the assay on Staphylococcus aureus, 200 µg/mL (≈ 540 µM). Besides, the MIC in assay [1] was 100 µg/mL (≈ 270 µM); in the assay on Aspergillus niger, 200 µg/mL (≈ 540 µM); with Candida it was 200 µg/mL (≈ 540 µM); in the assay with Escherichia coli, 200 µg/mL (≈ 540 µM).

With `Clc1ccc(C2CC(=NOCc3ccccc3)CC(c3ccc(Cl)cc3)N2)cc1` (stereo not given), the MIC is 100 µg/mL (≈ 235 µM) in the assay with Cryptococcus neoformans; 200 µg/mL (≈ 470 µM) in the assay with Aspergillus flavus; 50 µg/mL (≈ 118 µM) in the assay on Pseudomonas aeruginosa; 50 µg/mL (≈ 118 µM) with Candida albicans; more than 200 µg/mL in the assay with Rhizopus; 50 µg/mL (≈ 118 µM) in the assay with Staphylococcus aureus. Besides, the MIC in assay [1] turned out to be 100 µg/mL (≈ 235 µM); in the assay with Aspergillus niger, 50 µg/mL (≈ 118 µM); with Candida, 200 µg/mL (≈ 470 µM); with Escherichia coli it was 50 µg/mL (≈ 118 µM).

For `COc1ccc(C2NC(c3ccc(OC)cc3)C(C)C(=NOCc3ccccc3)C2C)cc1` (stereo not given), the MIC in the assay with Cryptococcus neoformans worked out at 12.5 µg/mL (≈ 28.1 µM); in the assay with Aspergillus flavus, 100 µg/mL (≈ 225 µM); with Pseudomonas aeruginosa, 50 µg/mL (≈ 112 µM); in the assay with Candida albicans, 12.5 µg/mL (≈ 28.1 µM); in the assay with Rhizopus, 25 µg/mL (≈ 56.2 µM); with Staphylococcus aureus it was 25 µg/mL (≈ 56.2 µM). The minimum inhibitory concentration (MIC) in [1] amounted to 25 µg/mL (≈ 56.2 µM); in the assay with Aspergillus niger, 25 µg/mL (≈ 56.2 µM); in the assay with Candida, 6.25 µg/mL (≈ 14.1 µM); in the assay with Escherichia coli, 25 µg/mL (≈ 56.2 µM).

As to `CCC1/C(=N\OCc2ccccc2)CC(c2ccccc2)OC1c1ccccc1` (stereo not given), the MIC with Cryptococcus neoformans was found to be 50 µg/mL (≈ 130 µM); in the assay on Aspergillus flavus, 100 µg/mL (≈ 259 µM); with Pseudomonas aeruginosa it was 100 µg/mL (≈ 259 µM); in the assay with Candida albicans it was 100 µg/mL (≈ 259 µM); with Rhizopus it was 100 µg/mL (≈ 259 µM); in the assay with Staphylococcus aureus it was 200 µg/mL (≈ 519 µM). Also, the MIC in assay [1] was found to be 100 µg/mL (≈ 259 µM); in the assay on Aspergillus niger, 200 µg/mL (≈ 519 µM); with Candida it was 100 µg/mL (≈ 259 µM); with Escherichia coli it was 50 µg/mL (≈ 130 µM).

For the compound `Cc1ccc(C2C/C(=N\OCc3ccccc3)C(C)C(c3ccc(C)cc3)N2)cc1` (stereo not given), the MIC in the assay with Cryptococcus neoformans was 100 µg/mL (≈ 251 µM); with Aspergillus flavus, 100 µg/mL (≈ 251 µM); with Pseudomonas aeruginosa it was 50 µg/mL (≈ 125 µM); with Candida albicans, 50 µg/mL (≈ 125 µM); in the assay with Rhizopus, 25 µg/mL (≈ 62.7 µM); in the assay on Staphylococcus aureus, 50 µg/mL (≈ 125 µM). The MIC in [1] is 100 µg/mL (≈ 251 µM); with Aspergillus niger, 100 µg/mL (≈ 251 µM); in the assay with Candida it was 50 µg/mL (≈ 125 µM); in the assay on Escherichia coli, 100 µg/mL (≈ 251 µM).

As for `COc1ccc(C2OC(c3ccc(OC)cc3)C(C)C(=NOCc3ccccc3)C2C)cc1` (stereo not given), the MIC in the assay with Cryptococcus neoformans was 6.25 µg/mL (≈ 14 µM); in the assay on Aspergillus flavus it was 100 µg/mL (≈ 224 µM); with Pseudomonas aeruginosa it was 25 µg/mL (≈ 56.1 µM); in the assay with Candida albicans, 50 µg/mL (≈ 112 µM); in the assay with Rhizopus, 25 µg/mL (≈ 56.1 µM); in the assay on Staphylococcus aureus, 50 µg/mL (≈ 112 µM). In addition, the MIC in assay [1] came to 50 µg/mL (≈ 112 µM); in the assay on Aspergillus niger, 50 µg/mL (≈ 112 µM); in the assay on Candida, 12.5 µg/mL (≈ 28.1 µM); in the assay with Escherichia coli, 25 µg/mL (≈ 56.1 µM).

Source of the values: ChEMBL document CHEMBL1158420, “Synthesis, spectral, crystal and antimicrobial studies of biologically potent oxime ethers of nitrogen, oxygen and sulfur heterocycles” (2009).
